This note sets out measurements from patent publication US5696117A, “Benzoxazine antimicrobial agents” (Ortho Pharmaceutical Corporation, priority 1995, dated 1997).

The target of this experiment is T1, Kinase A and SpoOF (Bacillus subtilis, UniProt P16497).
T1 construct: made in house; host or cells: recombinant E. coli (overexpression)
T1 sequence (P16497 1-606): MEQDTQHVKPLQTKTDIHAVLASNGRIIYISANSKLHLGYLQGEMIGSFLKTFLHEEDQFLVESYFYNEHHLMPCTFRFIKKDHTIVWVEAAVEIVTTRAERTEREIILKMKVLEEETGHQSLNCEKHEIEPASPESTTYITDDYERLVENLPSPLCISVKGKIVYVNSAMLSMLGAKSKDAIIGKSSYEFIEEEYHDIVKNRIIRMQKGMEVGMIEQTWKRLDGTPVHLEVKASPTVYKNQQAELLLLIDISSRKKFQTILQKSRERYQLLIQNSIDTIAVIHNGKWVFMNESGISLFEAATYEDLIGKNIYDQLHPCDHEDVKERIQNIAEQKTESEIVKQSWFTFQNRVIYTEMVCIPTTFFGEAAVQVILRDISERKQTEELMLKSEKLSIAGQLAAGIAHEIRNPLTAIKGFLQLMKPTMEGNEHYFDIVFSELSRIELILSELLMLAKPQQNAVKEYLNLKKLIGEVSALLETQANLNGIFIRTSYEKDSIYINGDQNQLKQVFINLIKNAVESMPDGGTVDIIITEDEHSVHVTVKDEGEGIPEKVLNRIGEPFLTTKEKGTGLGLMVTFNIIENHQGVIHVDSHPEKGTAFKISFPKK
Kind of experiment: Autophosphorylation of Kinase A and Transphosphorylation of SpoOF Assay (HPK in vitro assay). The class given is biochemical. The conditions noted are these: inhibition of KinA autophosphorylation / SpoOF transphosphorylation, inhibitor concentrations from 1 to 500 μM. How it is done: 1. Autophosphorylation of Kinase A and Transphosphorylation of SpoOF Assay
To study the effect of the compounds of the present invention on the signal transduction process in bacteria, the inhibiting effect of the compounds on the sporulation operon proteins Kinase A and SpoOF was examined. Specifically, the inhibition of autophosphorylation of Kinase A and the transphosphorylation of SpoOF was determined in the following assays. The SpoOF response regulator is the primary substrate for phosphorylation by the protein kinase, Kin A, involved in the sporulation process in bacteria. See D. Burbulys, K. A. Trach, J. A. Hoch, Cell, 64, 545-552 (1991). SpoOF and KinA were prepared from recombinant E. coli overexpressing the proteins (J. Cavanagh et al, Amino Acids, 6, 131-140 (1994) and references therein).
The following stock reagents were either prepared and used promptly or stored at the indicated temperature:
8× Salts: 2M KCl (5 mL), 1M MgCl2 (800 mL), 1M CaCl2 (100 mL), 10 mg/mL phenylmethylsulfonyl fluoride (200 mL), 1M dithioreitol (50 mL), 0.25M Na2 EDTA (32 mL) and H2 O 3.82 mL (-20° C.)
5× Loading Dye: 0.5M TRIS-HCl-pH 6.8 (7.5 mL), 10% SDS (2 mL) 0.1% bromophenol blue (0.5 mL), 100% glycerol (3 mL) and 12.5M 2-mercaptoethanol (0.3 mL)
1-1.3 mg/mL KinA:15 mM TRIS-HCl, pH 8.0, 6 mM KCl; 4 mM 2-mercaptoethanol; 40% glycerol (-20° C.)
1 mg/mL SpoOF: 17.5 mM TRIS-HCl, pH 8.0; 0.7 mM KCl; 0.7 mM MgCl2; 0.7 mM CaCl2; 5mM 2-mercaptoethanol; 30% Glycerol (-20° C.)
5% Stacking Gel: 40% 29:1 acrylamide:bis acrylamide (1.25 mL), 0.5M TRIS-HCl, pH 6.8 (2.5 mL), 10% SDS (0.1 mL), D-H2 O (6.15 mL) 10% ammonium persulfate (100 mL) and TEMED (25 mL)
SDS Running Buffer: TRIS-BASE (3.02 g), glycine (14.4 g) SDS (1 g), D-H2 O (to 1 L)
The reaction mixture was prepared from 8× Salts (87 μL), 1M TRIS, pH 8 (118 μL), 50% glycerol (63 μL), SpoOF (14.1 μL) and KinA (7.0 μL). Microcentrifuge tubes were charged with the reaction mixture (18.5 μL) and a 1.0 mM solution of the test compound in 5% DMSO (18.5 μL), and incubated for 15 min on ice. 100 mM ATP solution (3.0 μl, containing 625 μCi [^32 P]ATP) was added, and the mixture left for 10 minutes at room temperature. The reaction was quenched with 5× loading dye (10 μL per tube) and the samples were loaded on a prepared 5% Stacking Gel, or stored on dry ice until ready for use. The prepared wells were filled with SDS Running Buffer, samples were loaded into the wells, and 80 volts were applied to the gel until the dye front reached the bottom of the stacking gel. The voltage was then increased to 250 volts until electrophoresis was complete. Radioactive bands in the gel corresponding to phosphorylated KinA and SpoOF were imaged and quantitated with a phosphoimager.
If either enzyme was inhibited (as evidenced by the absence of labelled protein in the developed gel), an IC50 was calculated by running the assay with a range of inhibitor concentrations from 1 to 500 μM. After electrophoresis of the reaction mixtures, percent inhibition was determined by measuring the concentration of radioactive phosphorus with a phosphoimager and calculating the values using a software program (BioRad Molecular Analyst). IC50 values of less than 500 μM are considered active.

The term IC50 denotes the concentration that inhibits the measured activity by half. Molecule `CN1C(=O)C(CCOc2ccc(CCNC(=NC(=O)OC(C)(C)C)NC(=O)OC(C)(C)C)cc2)Oc2ccccc21` (centres unmarked) [Compound 59, 2-{2-[4-[2-(N,N'-Bis-tert-butoxycarbonylguanidino)ethyl]phenoxy]ethyl}-3,4-dihydro-4-methyl-3-oxo-2H-1,4-benzoxazine] registered an IC50 of 473 µM.
As for `N=C(N)NCCc1ccc(OCCC2Oc3ccncc3N(Cc3cccc(Cl)c3)C2=O)cc1` (centres unmarked) [Compound 62, 4-(3-Chlorobenzyl)-3,4-dihydro-2-[2-[4-(2-guanidinoethyl)phenoxy]ethyl]-3-oxo-2H-pyrido[4,3-b]-1,4-oxazine], the figure is 174 µM; as for `Cc1ccc(CN2CC(CCOc3ccc(CCNC(=N)N)cc3)Oc3ccccc32)cc1` (centres unmarked) [Compound 66, 3,4-Dihydro-2-{2-[4-[2-guanidinoethyl]phenoxy]ethyl}-4-(4-methylbenzyl)-2H-1,4-benzoxazine], 19 µM.
With `N=C(N)NCCc1ccc(OCCC2CN(Cc3ccc(Cl)cc3Cl)c3ccccc3O2)cc1` (centres unmarked) [Compound 68, (2,4-Dichlorobenzyl)-3,4-dihydro-2-{2-[4-(2-guanidinoethyl)phenoxy]ethyl}-4-2H-1,4-benzoxazine] the figure was 17 µM; with `CC(C)(C)OC(=O)NCCc1cccc(OCCC2Oc3ccccc3N(Cc3cccc(Cl)c3)C2=O)c1` (centres unmarked) [Compound 69, 2-{2-[3-(2-(t-Butoxycarbonylamino)ethyl)phenoxy]ethyl}-4-(3-chlorobenzyl)-3,4-dihydro-3-oxo-2H-1,4-benzoxazine], 358 µM.
Take `CC(C)(C)OC(=O)N=C(NCCc1ccc(OCCC2Oc3ccccc3N(Cc3cccc(Cl)c3)C2=O)cc1)NC(=O)OC(C)(C)C` (centres unmarked) [Compound 71, 2-{2-[4-[2-(N,N-'Bis-tert-butoxycarbonylguanidino)ethyl]phenoxy]ethyl}-4-(3-chlorobenzyl)-3,4-dihydro-3-oxo-2H-1,4-benzoxazine]: the 50% inhibitory concentration (IC50) amounted to 300 µM.
With `CC(C)(C)OC(=O)NCc1cccc(OCCC2Oc3ccccc3N(Cc3cccc(Cl)c3)C2=O)c1` (centres unmarked) [Compound 73, 2-{2-[3-(t-Butoxycarbonylaminomethyl)phenoxy]ethyl}-4-(3-chlorobenzyl)-3,4-dihydro-3-oxo-2H-1,4-benzoxazine] the figure was 354 µM; with `CC(C)(C)OC(=O)N=C(NCc1ccc(OCCC2Oc3ccccc3N(Cc3cccc(Cl)c3)C2=O)cc1)NC(=O)OC(C)(C)C` (centres unmarked) [Compound 77, 2-{2-[4-[(N,N-'Bis-tert-butoxycarbonyl)guanidinomethyl]phenoxy]ethyl}-4-(3-chlorobenzyl)-3,4-dihydro-3-oxo-2H-1,4-benzoxazine], 51 µM; with `CC(C)(C)OC(=O)N=C(NCCc1ccc(OCCC2Oc3cc([N+](=O)[O-])ccc3N(Cc3cccc(Cl)c3)C2=O)cc1)NC(=O)OC(C)(C)C` (centres unmarked) [Compound 80], 162 µM.
Molecule `Cl.NCCc1ccc(OCCC2Oc3cc([N+](=O)[O-])ccc3N(Cc3cccc(Cl)c3)C2=O)cc1` (centres unmarked) [Compound 82, 2-{2-[4-(2-Aminoethyl)phenoxy]ethyl}-4-(3-chlorobenzyl)-3,4-dihydro-7-nitro-3-oxo-2H-1,4-benzoxazine monohydrochloride] gave an IC50 of 27 µM.
As for `Cl.N=C(N)NCCc1ccc(OCCC2Oc3cc([N+](=O)[O-])ccc3N(Cc3cccc(Cl)c3)C2=O)cc1` (centres unmarked) [Compound 84, 3,4-Dihydro-4-(3-chlorobenzyl)-2-{2-[4-(2-guanidinoethyl)phenoxy]ethyl}-7-nitro-3-oxo-2H-1,4-benzoxazine Monohydrochloride], the figure is 30 µM.
With `Cl.N=C(N)NCCc1ccc(OCCC2Oc3cc([N+](=O)[O-])ccc3N(Cc3ccccc3Cl)C2=O)cc1` (centres unmarked) [Compound 87, 4-(2-Chlorobenzyl)-3,4-dihydro-2-{2-[4-(2-guanidinoethyl)phenoxy]ethyl}-7-nitro-3-oxo-2H-1,4-benzoxazine Monohydrochloride] the figure was 11 µM; with `N=C(N)NCCc1ccc(OCCC2Oc3cc([N+](=O)[O-])ccc3N(Cc3cccc([N+](=O)[O-])c3)C2=O)cc1` (centres unmarked) [Compound 91, 3,4-Dihydro-2-{2-[4-(2-guanidinoethyl)phenoxy]ethyl}-7-nitro-4-(3-nitrobenzyl)-3-oxo-2H-1,4-benzoxazine], 33 µM; with `N=C(N)NCCc1ccc(OCCC2Oc3ccccc3N(Cc3cccc([N+](=O)[O-])c3)C2=O)cc1` (centres unmarked) [Compound 95, 3,4-Dihydro-2-{2-[4-(2-guanidinoethyl)phenoxy]ethyl}-4-(3-nitrobenzyl)-3-oxo-2H-1,4-benzoxazine], 32 µM.
As for `N=C(N)NCCc1ccc(OCCC2Oc3cc([N+](=O)[O-])ccc3N(Cc3ccc([N+](=O)[O-])cc3)C2=O)cc1` (centres unmarked) [Compound 97, 3,4-Dihydro-2-{2-[4-(2-guanidinoethyl)phenoxy]ethyl}-7-nitro-4-(4-nitrobenzyl)-3-oxo-2H-1,4-benzoxazine], the figure is 53 µM; as for `COc1ccc2c(c1)OC(CCOc1ccc(CCNC(=NC(=O)OC(C)(C)C)NC(=O)OC(C)(C)C)cc1)C(=O)N2Cc1cccc([N+](=O)[O-])c1` (centres unmarked) [Compound 99, 2-{2-[4-(2-(N,N'-Bis-tert-butoxycarbonylguanidino)ethyl)phenoxy]ethyl}-3,4-dihydro-7-methoxy-4-(3-nitrobenzyl)-3-oxo-2H-1,4-benzoxazine], 343 µM.
In turn, `COc1ccc2c(c1)OC(CCOc1ccc(CCNC(=N)N)cc1)C(=O)N2Cc1cccc([N+](=O)[O-])c1` (centres unmarked) [Compound 100, 3,4-Dihydro-2-{2-[4-(2-guanidinoethyl)phenoxy]ethyl}-7-methoxy-4-(3-nitrobenzyl)-3-oxo-2H-1,4-benzoxazine] had an IC50 of 32 µM.
With `COC(=O)c1ccc(CN2C(=O)C(CCOc3ccc(CCN)cc3)Oc3ccccc32)cc1` (centres unmarked) [Compound 104, 2-{2-[4-(2-Aminoethyl)phenoxy]ethyl}-4-(4-carbomethoxybenzyl)-3,4-dihydro-3-oxo-2H-1,4-benzoxazine] the figure was 24 µM.
In turn, `COC(=O)c1cccc(CN2C(=O)C(CCOc3ccc(CCN)cc3)Oc3ccccc32)c1` (centres unmarked) [Compound 106, 2-{2-[4-(2-Aminoethyl)phenoxy]ethyl}-4-(3-carbomethoxybenzyl)-3,4-dihydro-3-oxo-2H-1,4-benzoxazine] showed an IC50 of 166 µM.
As for `NCCc1ccc(OCCC2Oc3ccccc3N(Cc3ccc(C(=O)O)cc3)C2=O)cc1` (centres unmarked) [Compound 110, 4-{3,4-Dihydro-2-[2-(4-(2-aminoethyl)phenoxy)]ethyl-3-oxo-2H-1,4-benzoxazin-4-yl}methylbenzoic Acid], the figure is 324 µM.
